Laboratory results reported in ChEMBL document CHEMBL3872232, “2-Azetidinones: Synthesis and biological evaluation as potential anti-breast cancer agents” (Eur J Med Chem, 2016).
Active and inactive are the calls of the source. The rule behind the calls is not given here.

Legend:
[1] = Cell cycle arrest in human MCF7 cells assessed as accumulation at sub-G1 phase at 5 uM after 24 hrs by propidium iodide staining based flow cytometry (reference value: 3.58%); format: functional
MCF7 [2] = test: Inhibition of Akt in human MCF7 cells assessed as GSK-3beta phosphorylation reduction in after 48 hrs by immunoblot analysis; format: cell-based
Homo sapiens [3] = organism: Homo sapiens; test: Inhibition of Akt in human MDA-MB-231 cells assessed as ratio of phosphorylated Akt to GAPDH expression level at 10 uM after 48 hrs by immunoblot analysis (reference value: 0.33 to 0.81); format: cell-based
Homo sapiens [4] = organism: Homo sapiens; test: Inhibition of Akt in human MDA-MB-231 cells assessed as ratio of phosphorylated GSK-3beta to GAPDH expression level at 10 uM after 48 hrs by immunoblot analysis (reference value: 0.14 to 1.50); format: cell-based
MDA-MB-231 [5] = test: Effect on p21 mRNA expression in human MDA-MB-231 cells assessed as ratio of p21 to GAPDH expression level at 5 uM after 24 hrs by RT-PCR method (reference value: 0.02); format: functional
MDA-MB-231 [6] = test: Effect on p27 mRNA expression in human MDA-MB-231 cells assessed as ratio of p27 to GAPDH expression level at 5 uM after 24 hrs by RT-PCR method (reference value: 0.23); format: functional
[7] = Antiproliferative activity against human MCF7 cells after 48 hrs by MTT assay; format: functional, cell-based; details: MCF7, 48 h
MDA-MB-231 [8] = test: Effect on Bid gene expression in human MDA-MB-231 cells assessed as ratio of Bid to beta-actin expression level at 5 uM after 24 hrs by RT-PCR method (reference value: 0.17); format: functional
MDA-MB-231 [9] = test: Induction of apoptosis in human MDA-MB-231 cells assessed as early apoptotic cells at 5 uM after 24 hrs by Annexin V-FITC/propidium iodide staining based flow cytometry (reference value: 0.5%); format: functional
MDA-MB-231 [10] = test: Effect on cyclin D1 mRNA expression in human MDA-MB-231 cells assessed as ratio of cyclin D1 to GAPDH expression level at 5 uM after 24 hrs by RT-PCR method (reference value: 0.71); format: functional
Homo sapiens [11] = organism: Homo sapiens; test: Inhibition of Akt in human MDA-MB-231 cells assessed as ratio of phosphorylated GSK-3beta to GAPDH expression level at 2 uM after 48 hrs by immunoblot analysis (reference value: 0.14 to 1.50); format: cell-based
MDA-MB-231 [12] = test: Inhibition of Akt phosphorylation in human MDA-MB-231 cells after 48 hrs by immunoblot analysis; format: cell-based
[13] = Cell cycle arrest in human MDA-MB-231 cells assessed as increase in cell accumulation at sub-G1 phase at 5 uM after 24 hrs by propidium iodide staining based flow cytometry; format: functional
MDA-MB-231 [14] = test: Inhibition of Akt in human MDA-MB-231 cells after 48 hrs by ELISA; format: cell-based
[15] = Antiproliferative activity against human MDA-MB-231 cells after 48 hrs by MTT assay; format: functional, cell-based; details: MDA-MB-231, 48 h
[16] = Cell cycle arrest in human MCF7 cells assessed as accumulation at G0/G1 phase at 5 uM after 24 hrs by propidium iodide staining based flow cytometry (reference value: 83.25%); format: functional
MDA-MB-231 [17] = test: Ratio of Bcl-2 to Bax gene expression in human MDA-MB-231 cells at 5 uM after 24 hrs by RT-PCR method (reference value: 0.03); format: functional
MDA-MB-231 [18] = test: Induction of apoptosis in human MDA-MB-231 cells assessed as necrotic cells at 5 uM after 24 hrs by Annexin V-FITC/propidium iodide staining based flow cytometry (reference value: 1.3%); format: functional
Homo sapiens [19] = organism: Homo sapiens; test: Inhibition of Akt in human MDA-MB-231 cells assessed as ratio of phosphorylated GSK-3beta to GAPDH expression level at 5 uM after 48 hrs by immunoblot analysis (reference value: 0.14 to 1.50); format: cell-based
MCF7 [20] = test: Inhibition of Akt phosphorylation in human MCF7 cells after 48 hrs by immunoblot analysis; format: cell-based
[21] = Cell cycle arrest in human MCF7 cells assessed as accumulation at G2/M phase at 5 uM after 24 hrs by propidium iodide staining based flow cytometry (reference value: 9.29%); format: functional
Homo sapiens [22] = organism: Homo sapiens; test: Inhibition of Akt in human MDA-MB-231 cells assessed as ratio of phosphorylated Akt to GAPDH expression level at 5 uM after 48 hrs by immunoblot analysis (reference value: 0.33 to 0.81); format: cell-based
[23] = Antiproliferative activity against human mammary epithelial cells after 48 hrs by MTT assay; format: cell-based, Epithelial cell
MDA-MB-231 [24] = test: Induction of apoptosis in human MDA-MB-231 cells assessed as late apoptotic cells at 5 uM after 24 hrs by Annexin V-FITC/propidium iodide staining based flow cytometry (reference value: 1.8%); format: functional
Homo sapiens [25] = organism: Homo sapiens; test: Inhibition of Akt in human MDA-MB-231 cells assessed as ratio of phosphorylated Akt to GAPDH expression level at 2 uM after 48 hrs by immunoblot analysis (reference value: 0.33 to 0.81); format: cell-based
MCF7 [26] = test: Induction of apoptosis in human MCF7 cells assessed as late apoptotic cells at 5 uM after 24 hrs by Annexin V-FITC/propidium iodide staining based flow cytometry (reference value: 2.3%); format: functional
MCF7 [27] = test: Induction of apoptosis in human MCF7 cells assessed as necrotic cells at 5 uM after 24 hrs by Annexin V-FITC/propidium iodide staining based flow cytometry (reference value: 3.7%); format: functional
[28] = Safety index, ratio of compound IC50 to colchicine IC50 for human mammary epithelial cells; format: ADME, cell-based, Epithelial cell; details: read-out: Ratio IC50
MCF7 [29] = test: Induction of apoptosis in human MCF7 cells assessed as early apoptotic cells at 5 uM after 24 hrs by Annexin V-FITC/propidium iodide staining based flow cytometry (reference value: 1.6%); format: functional
MDA-MB-231 [30] = test: Effect on Cdk2 mRNA expression in human MDA-MB-231 cells assessed as ratio of Cdk2 to GAPDH expression level at 5 uM after 24 hrs by RT-PCR method (reference value: 0.26); format: functional
MDA-MB-231 [31] = test: Inhibition of Akt in human MDA-MB-231 cells assessed as reduction in GSK-3beta phosphorylation after 48 hrs by immunoblot analysis; format: cell-based
MDA-MB-231 [32] = test: Effect on Cdk6 mRNA expression in human MDA-MB-231 cells assessed as ratio of Cdk6 to GAPDH expression level at 5 uM after 24 hrs by RT-PCR method (reference value: 1.37); format: functional
[33] = Cell cycle arrest in human MCF7 cells assessed as accumulation at S phase at 5 uM after 24 hrs by propidium iodide staining based flow cytometry (reference value: 4.23%); format: functional
MDA-MB-231 [34] = test: Effect on p53 gene expression in human MDA-MB-231 cells assessed as ratio of p53 to beta-actin expression level at 5 uM after 24 hrs by RT-PCR method (reference value: 0.22); format: functional
MCF7 [35] = test: Induction of apoptosis in human MCF7 cells assessed as increase in necrotic cells at 5 uM after 24 hrs by Annexin V-FITC/propidium iodide staining based flow cytometry relative to colchicine; format: functional
MDA-MB-231 [36] = test: Effect on cyclin E mRNA expression in human MDA-MB-231 cells assessed as ratio of cyclin E to GAPDH expression level at 5 uM after 24 hrs by RT-PCR method (reference value: 0.13); format: functional
Homo sapiens [37] = organism: Homo sapiens; test: Inhibition of Akt in human MDA-MB-231 cells assessed as ratio of phosphorylated GSK-3beta to GAPDH expression level at 100 nM after 48 hrs by immunoblot analysis (reference value: 0.14 to 1.50); format: cell-based
Homo sapiens [38] = organism: Homo sapiens; test: Inhibition of Akt in human MDA-MB-231 cells assessed as ratio of phosphorylated Akt to GAPDH expression level at 100 nM after 48 hrs by immunoblot analysis (reference value: 0.33 to 0.81); format: cell-based
[39] = Cell cycle arrest in human MDA-MB-231 cells assessed as increase in cell accumulation at G2/M phase at 5 uM after 24 hrs by propidium iodide staining based flow cytometry; format: functional
[40] = Homo sapiens, Epithelial cell, 48 h, read-out: IC50

Row | Compound | Activity [1] [%] | Ratio (MDA-MB-231 [5]) | Ratio (MDA-MB-231 [6]) | IC50 [7] [µM] | Ratio (MDA-MB-231 [8]) | Activity (MDA-MB-231 [9]) [%] | Ratio (MDA-MB-231 [10]) | IC50 [15] [µM] | Activity [16] [%] | Ratio (MDA-MB-231 [17]) | Activity (MDA-MB-231 [18]) [%] | Ratio (Homo sapiens [19]) | Activity [21] [%] | Ratio (Homo sapiens [22]) | Activity (MDA-MB-231 [24]) [%] | Activity (MCF7 [26]) [%] | Activity (MCF7 [27]) [%] | Activity (MCF7 [29]) [%] | Ratio (MDA-MB-231 [30]) | Ratio (MDA-MB-231 [32]) | other results
1 | CCOC(=O)/C(=C/c1ccccc1)CN1C(=O)[C@@H](OC)[C@H]1c1ccccc1Br | 12.9 | 0.03 | 0.41 | 5.79 | 0.56 | 2.2 | 0.47 | 6.86 | 71.2 | 0.01 | 0.9 | 0.61 | 9.11 | 0.03 | 5.4 | 6.7 | 13.1 | 4 | 0.18 | 0.19 | inhibition (MCF7 [2]): Dose-dependent effect; Ratio (Homo sapiens [3]): 0.01; Ratio (Homo sapiens [4]): 0.58; Ratio (Homo sapiens [11]): 1.16; inhibition (MDA-MB-231 [12]): Dose-dependent effect; Activity [13]: Active; inhibition (MDA-MB-231 [14]): Dose-dependent effect; inhibition (MCF7 [20]): Dose-dependent effect; IC50 [23, 40]: 66.6 µM; Ratio (Homo sapiens [25]): 0.16; selectivity ratio [28]: 10; inhibition (MDA-MB-231 [31]): Dose-dependent effect; Activity [33]: 5.17%; Ratio (MDA-MB-231 [34]): 0.25; fold change (FC) (MCF7 [35]): 2; Ratio (MDA-MB-231 [36]): 0.03
2 | COC[C@H]1OC(=O)c2coc3c2[C@@]1(C)C1=C(C3=O)[C@@H]2CCC(=O)[C@@]2(C)C[C@H]1OC(C)=O |  |  |  |  |  |  |  |  |  |  |  |  |  |  |  |  |  |  |  |  | Ratio (Homo sapiens [37]): 0.61; Ratio (Homo sapiens [38]): 0.01
3 | COc1cc2c(c(OC)c1OC)-c1ccc(OC)c(=O)cc1[C@@H](NC(C)=O)CC2 [COLCHICINE] | 7.4 | 0.6 | 0.6 | 0.072 | 0.42 | 2.3 | 1.5 | 3.55 | 66.2 | 0.1 | 0.9 | 0.12 to 1.45 | 16.2 | 0.23 to 0.44 | 5.8 | 1.8 | 6.5 | 1 | 0.39 | 1.56 | Activity [39]: Active; IC50 [23, 40]: 9.26 µM; Activity [33]: 10.3%; Ratio (MDA-MB-231 [34]): 0.3; Ratio (MDA-MB-231 [36]): 0.19
4 | CO[C@@H]1C(=O)N(C/C(C#N)=C/c2ccccc2)[C@@H]1c1ccc(C)cc1 | 2.22 | 0.08 | 0.24 | 9.99 | 0.32 | 1.3 | 0.64 | 9.27 | 83 | 0.02 | 1.4 | 0.15 | 9.43 | 0.09 | 4.1 | 12.8 | 1.9 | 9 | 0.22 | 0.51 | Ratio (Homo sapiens [3]): 0.06; Ratio (Homo sapiens [4]): 0.17; Ratio (Homo sapiens [11]): 0.04; inhibition (MDA-MB-231 [12]): Dose-dependent effect; inhibition (MDA-MB-231 [14]): Dose-dependent effect; IC50 ([23]; epithelial cell): Non-Toxic; Ratio (Homo sapiens [25]): 0.35; selectivity ratio [28]: 10; Activity [33]: 4.15%; Ratio (MDA-MB-231 [34]): 0.17; Ratio (MDA-MB-231 [36]): 0.16
5 | CO[C@@H]1C(=O)N(C/C(C#N)=C/c2ccccc2)[C@@H]1c1ccc(F)cc1 | 2.83 | 0.09 | 0.33 | 8.31 | 0.39 | 1.1 | 1.59 | 9.24 | 83.2 | 0.03 | 1.6 | 0.22 | 9.68 | 0.45 | 4.7 | 2.3 | 6.9 | 1.7 | 0.32 | 1.3 | Ratio (Homo sapiens [3]): 0.58; Ratio (Homo sapiens [4]): 0.2; Ratio (Homo sapiens [11]): 0.42; inhibition (MDA-MB-231 [14]): Dose-dependent effect; IC50 ([23]; epithelial cell): Non-Toxic; Ratio (Homo sapiens [25]): 0.42; selectivity ratio [28]: 10; inhibition (MDA-MB-231 [31]): Dose-dependent effect; Activity [33]: 5.15%; Ratio (MDA-MB-231 [34]): 0.21; Ratio (MDA-MB-231 [36]): 0.2
